What was measured:
Assay type in all cases: physicochemical
[1] = Flowability of the crystal forms by flowability / compressibility / Carr index; details: for Carr index: tap and bulk densities in graduated cylinder, data at 10 and 1250 taps, <=20% good powder flow, >21% passable to very difficult
Method: The flowability of the rimonabant monohydrate crystal form was measured and compared to that of the rimonabant crystal form II. The flowability of the crystal forms is measured by the flowability index or compressibility index or Carr index as described in R. L. Carr: Evaluation of flow properties of solids, Chem. Eng., 1965, 163-168 and also in the European Pharmacopeia.
The flowability index is calculated according to the following equation: IC=100×(ρt−ρb)/ρt where ρt is the tap density and ρb is the bulk density. This index is considered to be good if it is less than 20.
The densities are determined experimentally by packing the product into a graduated cylinder according to the procedure described in the European Pharmacopeia. The densities are determined after 10, 500, 1250 and 2500 taps. The Carr index is determined from the data measured at 10 and 1250 taps.
A Carr index less than or equal to 20% is considered as corresponding to a good powder flow, whereas a Carr index greater than 21% is considered as corresponding to a passable, even difficult or very difficult, powder flow.

[2] = Filterability: specific resistance of the filter cake; details: filtering crystals from the solution in which they were formed; comparison with form I and form II
Source text: The improvement in filterability allows the filtration step to be shortened and leads to a significant improvement in the texture of the filter cake which is characterized by a low moisture content of the powder before drying and a low degree of residual solvent before drying. The resulting powder after drying has improved physical properties, especially in terms of flowability and therefore of handleability.

[3] = Water vapor sorption/desorption at 25° C. (SGA100 analyzer); details: sorption cycle 0-100% RH at 25° C. after degassing the monohydrate at 80° C. for 3 hours (water of hydration lost)
Method: Analysis of water vapor sorption/desorption measurements was carried out on the rimonabant monohydrate crystal form on a SGA100 analyzer sold by VTI (USA). It was operated between 0% and 100% relative humidity at 25° C. after degassing the monohydrate form at 80° C. for 3 hours. The rimonabant monohydrate loses its water of hydration molecule during drying at 80° C. During the water vapor sorption cycle, the conversion of the rimonabant into rimonabant monohydrate occurs starting from 40% relative humidity. The sorption/desorption isotherm is represented in FIG. 4.

Cc1c(C(=O)NN2CCCCC2)nn(-c2ccc(Cl)cc2Cl)c1-c1ccc(Cl)cc1 [rimonabant crystal form I, N-piperidino-5-(4-chlorophenyl)-1-(2,4-dichlorophenyl)-4-methylpyrazole-3-carboxamide]
Flowability corresponding to the Carr index (in words) ([1]; Carr index measured, only class in words printed): very difficult flowability

Cc1c(C(=O)NN2CCCCC2)nn(-c2ccc(Cl)cc2Cl)c1-c1ccc(Cl)cc1 [rimonabant crystal form II, N-piperidino-5-(4-chlorophenyl)-1-(2,4-dichlorophenyl)-4-methylpyrazole-3-carboxamide]
Carr index [1]: around 38%

Cc1c(C(=O)NN2CCCCC2)nn(-c2ccc(Cl)cc2Cl)c1-c1ccc(Cl)cc1 [rimonabant monohydrate crystal form]
Specific resistance of the filter cake [2]: less than that measured for rimonabant crystal form I and crystal form II
Carr index [1]: 20%

Cc1c(C(=O)NN2CCCCC2)nn(-c2ccc(Cl)cc2Cl)c1-c1ccc(Cl)cc1 [rimonabant, N-piperidino-5-(4-chlorophenyl)-1-(2,4-dichlorophenyl)-4-methylpyrazole-3-carboxamide]
Relative humidity from which conversion of rimonabant into rimonabant monohydrate occurs [3]: ≥ 40 % relative humidity
